- melting point: 185 °C
SMILES: CC(C)SN1C=Cn2c(nc(=O)n2[N+](=O)[O-])N1.O.O (hydrate or solvate)
